Consider 15 compounds from patent US20240360114A1 (SIRONAX LTD., priority 2021, published 2024).

As usually defined, the EC50 is the midpoint of the concentration-response curve.

For the first experiment, the system named is HT-1080 cells. The experiment in a line: HT-1080 cell viability assay (ferroptosis induced by RSL3, Cell Titer-Glo). Type of experiment: cell-based. The note with it: Homo sapiens, HT-1080, 20 h, ferroptosis inducer RSL3, 20 hours, ferroptosis inhibitory activity, Table 3. An outline of the steps:
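Cells seeded overnight, then co-treated with RSL3 and compound (3-fold, 10-point dilution, top 1.1 μM) for 20 hours. Viability by CellTiter-Glo luminescence, normalized to untreated controls; EC50 from sigmoidal non-linear regression.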
In general terms: Cellular ATP, detected with luciferase, serves as a proxy for viable cell number.
`Cc1nc(N2CC[Si](C)(C)CC2)ccc1NC1CC2(CC(O)C2)C1` (stereo not drawn) [Compound 625, 6-((6-(4,4-dimethyl-1,4-azasilinan-1-yl)-2-methylpyridin-3-yl)amino)spiro[3.3]heptan-2-ol] returned an EC50 of 0.0001 to 0.1 µM. On the same count and under the same terms, the result for `Cc1nc(N2CCOC3(CCC3)C2)ccc1NC1CC2(CC(N)C2)C1` (stereo not drawn) [Compound 626, N^2-(2-methyl-6-(5-oxa-8-azaspiro[3.5]nonan-8-yl)pyridin-3-yl)spiro[3.3]heptane-2,6-diamine] reads 0.0001 to 0.1 µM. In turn, `Cc1nc(N2C[C@@H](C)O[C@@H](C)C2)ccc1NC12CCC(N)(CC1)C2` [Compound 627] displayed an EC50 of 0.1 to 1 µM.

Compound `Cc1cc(N2CC(C)(C)OC(C)(C)C2)ccc1NC1CC2(CC(N)C2)C1` (stereo not drawn) [Compound 628, N^2-(2-methyl-4-(2,2,6,6-tetramethylmorpholino)phenyl)spiro[3.3]heptane-2,6-diamine] yielded an EC50 of 0.0001 to 0.1 µM.

As for `CC1CN(c2ccc3cc(NC4CC(N)C4)ccc3c2)CCO1` (stereo not drawn) [Compound 629, N^1-(6-(2-methylmorpholino)naphthalen-2-yl)cyclobutane-1,3-diamine], the EC50 was 0.0001 to 0.1 µM. The same measure, in the same setting: then `Cc1nc(N2C[C@@H](C)O[C@@H](C)C2)ccc1NC1CCCC(N)CCC1` (stereo partly drawn) [Compound 631, N1-(6-((2R,6S)-2,6-dimethylmorpholino)-2-methylpyridin-3-yl)cyclooctane-1,5-diamine], with 0.0001 to 0.1 µM; and `CC1CN(c2ccc3cc(N[C@H]4CC[C@@H](C(N)=O)CC4)ccc3c2)CC(C)O1` (stereo partly drawn) [Compound 632, (1s,4s)-4-((6-(2,6-dimethylmorpholino)naphthalen-2-yl)amino)cyclohexane-1-carboxamide], with 0.0001 to 0.1 µM; and `NC(=O)N1CCC(Nc2ccc3cc(N4CCC(C(F)(F)F)CC4)ccc3c2)CC1` [Compound 633, 4-((6-(4-(trifluoromethyl)piperidin-1-yl)naphthalen-2-yl)amino)piperidine-1-carboxamide], with 0.0001 to 0.1 µM. In the case of `Cc1cc(N2CC[Si](C)(C)CC2)ccc1NC1CC2(CC(N)C2)C1` (stereo not drawn) [Compound 634, N2-(4-(4.4-dimethyl-1,4-azasilinan-1-yl)-2-methylphenyl)spiro[3.3]heptane-2,6-diamine], the EC50 fell in the range of 0.0001 to 0.1 µM. In the case of `CCc1nc(N2CC(C)N(CC(F)(F)F)C(C)C2)c(F)cc1NC1CC(N)C1` (stereo not drawn) [Compound 635, N1-(6-(3,5-dimethyl-4-(2,2,2-trifluoroethyl)piperazin-1-yl)-2-ethyl-5-fluoropyridin-3-yl)cyclobutane-1,3-diamine], the 50% effective concentration (EC50) lay within 0.0001 to 0.1 µM. On the same count and under the same terms, then `Cc1cc(N2CC(C)N(CC(F)(F)F)C(C)C2)ccc1NC1CC2(CC(N)C2)C1` (stereo not drawn) [Compound 636, N2-(4-(3,5-dimethyl-4-(2,2,2-trifluoroethyl)piperazin-1-yl)-2-methylphenyl)spiro[3.3]heptane-2,6-diamine], with 0.0001 to 0.1 µM. As to `C[C@@H]1CN(c2ccc(NC3CC4(CC(N)C4)C3)c(OC(F)F)n2)C[C@H](C)O1` (stereo partly drawn) [Compound 637, N^2-(2-(difluoromethoxy)-6-((25,6R)-2,6-dimethylmorpholino)pyridin-3-yl)spiro[3.3]heptane-2,6-diamine], the EC50 lay within 0.0001 to 0.1 µM. On the same count and under the same terms, the result for `Cc1nc(N2CC[Si](C)(C)CC2)c(F)cc1NC1CC2(CC(N)C2)C1` (stereo not drawn) [Compound 638, N^2-(6-(4,4-dimethyl-1,4-azasilinan-1-yl)-5-fluoro-2-methylpyridin-3-yl)spiro[3.3]heptane-2,6-diamine] reads 0.0001 to 0.1 µM; that for `NC1CC2(C1)CC(Nc1ccc3nc(NCC(F)(F)F)ccc3c1)C2` (stereo not drawn) [Compound 639, N^6-(6-aminospiro[3.3]heptan-2-yl)-N^2-(2,2,2-trifluoroethyl) quinoline-2,6-diamine], 0.0001 to 0.1 µM.

Still in this experiment, the particulars now being: ferroptosis inducer RSL3, 20 hours, ferroptosis inhibitory activity, Table 3.
On to `CC1CN(c2ccc3cc(NC4CC(N)C4)ccc3c2)CCO1` (stereo not drawn) [Compound 630, N^1-(6-(2-methylmorpholino)naphthalen-2-yl)cyclobutane-1,3-diamine], for which the EC50 is 0.0001 to 0.1 µM.
